Assay results from article PMC9823088, “The oral selective estrogen receptor degrader GDC-0810 (ARN-810) in postmenopausal women with hormone receptor-positive HER2-negative (HR + /HER2 −) advanced/metastatic breast cancer” (Breast Cancer Research and Treatment, 2022).

Legend:
CYP2C enzymes = test system: CYP2C enzymes; design: method as in printed; conditions: stated as reason for dose adjustments; ref not given; cited from earlier work
ER and Ki-67 = assay: Paired tumor biopsies, ER protein levels and Ki-67; assay type: in vivo, human; conditions: after one cycle (28 days of treatment); samples from 3 patients only, no conclusions could be drawn
Description: CYP2B6 and CYP2C enzymes. No hormonal therapy, chemotherapy, immunotherapy, or experimental anti-cancer medications were permitted during the study.
(§1) Blood samples were collected for pharmacokinetic assessment on lead-in day −7 and cycle 2 day 1 (C2D1) at predose (0 hour) and postdose (0.5, 1, 1.5, 2, 3, 4, 6, 8, and 24 hours), (plus at 48 hours postdose for day−7). Full plasma pharmacokinetic profiles were obtained for GDC-0810 and its glucuronide metabolites (acyl-glucuronide and N-glucuronide) using a validated liquid chromatography/ tandem mass spectrometry method, and analyzed using non-compartmental methods for all patients in the dose escalation cohorts.
Tumor assessments were performed at screening and every 8 weeks from cycle-1, day-1 (C1D1). Radiographic assessment of objective tumor response or disease progression was based on Response Evaluation Criteria in Solid Tumors (RECIST v1.1). […] Imaging with [18F]-fluoroestradiol positron emission tomography (FES-PET) was performed to quantify ER expression in tumors and to assess for pharmacodynamic response. […]
In phase IIa cohort A1 patients, FES-PET scans were acquired at screening and on C3D3 at 18-24 hours post the C3D2 dose. […] The mean percent change from baseline in SUVmax (corrected for background activity) for up to five index lesions was calculated for each patient; more details are presented in (1). […]

[1] = Plasma pharmacokinetics of GDC-0810 and glucuronide metabolites; assay type: in vivo, human
Description: Blood samples were collected for pharmacokinetic assessments. Tumor assessments were performed at screening and every 8 weeks from cycle 1, day 1 (C1D1). Radiographic assessment of objective tumor response or disease progression was based on Response Evaluation Criteria in Solid Tumors (RECIST v1.1). Transvaginal ultrasound scans were performed to monitor endometrial thickness at screening, at every 6 months from C1D1, and at the end of treatment. Imaging with [^18F]-fluoroestradiol positron emission tomography (FES-PET) was performed to quantify ER expression in tumors and to assess for pharmacodynamic response. Further assessment details are provided in Supplementary Methods.
CYP2B6 and CYP2C enzymes. […]
as §1
Tumor assessments were performed at screening and every 8 weeks from cycle-1, day-1 […]

ERα = test system: ERα; design: method as in PMID 27410477; conditions: MCF-7 breast cancer cell; cited from earlier work
[2] = test system: tamoxifen-sensitive ER + breast cancer xenograft; conditions: tamoxifen-sensitive ER + breast cancer xenograft models; cited from earlier work
[3] = Study drug exposure (treatment duration); assay type: in vivo, human; conditions: phase Ia
Description: Patients in all three study phases continued treatment until unacceptable toxicity, disease progression, or consent withdrawal. See Supplementary Methods for other study treatment details.

[4] = test system: tamoxifen-resistant ER + breast cancer xenograft; conditions: tamoxifen-resistant ER + breast cancer xenograft models; cited from earlier work
CYP2B6 = test system: CYP2B6; design: method as in printed; conditions: stated as reason for dose adjustments; ref not given; cited from earlier work

Q: For `CC/C(=C(/c1ccc(/C=C/C(=O)O)cc1)c1ccc2[nH]ncc2c1)c1ccc(F)cc1Cl` [GDC-0810], which “effects on CYP2C enzymes” value (CYP2C enzymes) is on record?
A: inhibitory effects

Q: And the “ER and Ki-67 levels in tumor specimens” value (ER and Ki-67)?
A: reduced ER and Ki-67 levels

Q: And the “average exposure at steady state (AUC0-24 h), non-fasted compared to fasted” value ([1]; 600 mg QD)?
A: 1.5 fold

Q: And the “average exposure at steady state (Cmax), non-fasted compared to fasted” value ([1]; 600 mg QD)?
A: twofold

Q: What about the drug accumulation ([1]; following multiple dosing) of the same molecule?
A: Minimal drug accumulation

Q: What about the half-life ([1]; human, plasma, oral, 600-mg QD, non-fasted condition, read-out: mean terminal half-life (converted)) of the same molecule?
A: ~8 h

Q: And the Tmax ([1]; human, plasma, oral, after dosing, read-out: median Tmax)?
A: 1 to 3 h

Q: What about the pharmacokinetic profile ([1]; up to 600 mg) of the same molecule?
A: linear and dose proportional

Q: And the “proteasomal degradation of ERα” value (ERα)?
A: induced proteasomal degradation of ERα

Q: And the “response of ER to estrogens” value (ERα)?
A: fully antagonized

Q: What about the tumor regression [2] of the same molecule?
A: induced tumor regression

Q: And the “patients remaining on study treatment for 2 years” value [3]?
A: Two

Q: What about the tumor regression [4] of the same molecule?
A: induced tumor regression

Q: And the “effects on CYP2B6” value (CYP2B6)?
A: inhibitory effects
